Assay results published in patent publication US12509451B2, “Heteroaryl amide inhibitors of CD38” (NAPA THERAPEUTICS LTD., priority 2020, dated 2025).

Key:
[1] = molecular target: T1, CD38 (Mus musculus, UniProt P56528); test: In vivo efficacy against CD38 in aged mice, single oral dose, liver NAD+ metabolites
T1 construct: aged mice (male C57BL6/J, 22 months old) were fasted for 4 hr; from tissue; host or cells: C57BL6/J mice (aged, DIO obese or LPS-challenged); liver, spleen, plasma
T1 sequence (P56528 1-304): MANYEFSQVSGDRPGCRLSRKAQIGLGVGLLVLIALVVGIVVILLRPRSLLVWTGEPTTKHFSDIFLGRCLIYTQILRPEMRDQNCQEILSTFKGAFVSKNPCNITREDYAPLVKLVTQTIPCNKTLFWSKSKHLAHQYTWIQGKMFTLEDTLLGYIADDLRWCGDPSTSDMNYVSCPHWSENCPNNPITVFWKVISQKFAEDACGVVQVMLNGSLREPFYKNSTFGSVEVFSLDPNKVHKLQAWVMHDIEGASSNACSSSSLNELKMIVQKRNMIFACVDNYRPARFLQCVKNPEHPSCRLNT
Procedure: The in vivo efficacy of Compound 35 against the human CD38 enzyme was tested in aged mice after oral administration and determined by mass spec analysis of NAD+ metabolites levels in liver tissue. The two main CD38 substrates, NAD+ and NMN, and the 2 main byproducts of the CD38 enzymatic reaction, NAM and ADPR, were measured.
Briefly, aged mice (male C57BL6/J, 22 months old) were fasted for 4 hr and compound 35 was administered via oral gavage at a concentration of 3 mg/kg and 10 mg/kg. Mice were humanely euthanized for liver tissue harvesting at 1-, 3-, and 6-hr post-dosing. A vehicle control (DMSO:Solutol: SBE-CD, 2:5:93, v/v) was included to assess baseline NAD+ metabolites levels.
The procedure for tissue sample preparation and UPLC-MS/MS methods were adapted from Trammell et al. (2013) Compu. Struct. Biotechnol. J. […] (https://www.ncbi.nlm.nih.gov/pmc/articles/PMC3962138/). Briefly, frozen liver tissue was pulverized and resuspended in the extraction buffer (3:1 ethanol:10 mM aq. HEPES, pH 7.1). The samples were vortexed, sonicated briefly in a bath sonicator, and shaken at 55° C. for 3 min at 1,200 rpm. Samples were then centrifuged at 16,000×g for 10 min at 4° C., and the supernatant was dried by speedvac. The dried pellet was resuspended in 97% 10 mM ammonium acetate/3% acetonitrile, centrifuged at 16,000×g for 10 min at 4° C. and 2 μL was injected for LCMS analysis.
The UPLC-MS/MS analysis to measure NAD+ metabolites was performed using a Vanquish UHPLC system and a Q Exactive Orbitrap mass spectrometer with H-ESI ion source both from Thermo Scientific. UPLC separation was performed on a Hypercarb (2.1×100 mm, 5 μm particle size, Thermo) column following the method described in Trammell et al. (2013). Acquisition was carried out in positive ion, Parallel Reaction Monitoring (PRM) mode and targeted […] (t-SIM). The Thermo Xcalibur QualBrowser system software (version 4.2.47) and Freestyle (version 1.8.51.0) softwares was used for the data processing. For relative fold change, peak areas were normalized with respective internal standards, normalized to weight of the tissue sample used, and calculated as fold change relative at 0 h timepoint/vehicle group.

[2] = molecular target: T2, human CD38 enzyme in primary human CD4+ T cells (Homo sapiens, UniProt P28907); test: NAD+ hydrolase activity assay in primary human activated CD4+ T cells (Assay 7); assay type: cell-based; conditions: primary human CD4+ T cells activated with anti-CD3/CD28
T2 construct: whole primary human CD4+ T cells (from healthy donors); endogenous in cells
T2 sequence (P28907 1-300): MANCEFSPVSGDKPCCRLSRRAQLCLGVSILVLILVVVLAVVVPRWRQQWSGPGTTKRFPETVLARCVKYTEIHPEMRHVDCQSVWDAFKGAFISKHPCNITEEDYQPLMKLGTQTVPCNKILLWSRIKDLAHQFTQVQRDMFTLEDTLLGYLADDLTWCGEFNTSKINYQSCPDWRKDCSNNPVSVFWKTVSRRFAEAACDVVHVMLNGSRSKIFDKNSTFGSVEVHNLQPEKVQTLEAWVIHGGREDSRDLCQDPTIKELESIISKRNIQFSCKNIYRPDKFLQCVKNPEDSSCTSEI
Procedure: The in vitro potency of Compound 35 against the human CD38 enzyme was determined by a fluorescence-based NAD+ hydrolase activity assay using the NAD+ analog nicotinamide 1,N^6-etheno-adenine dinucleotide (εNAD+) as substrate. The assay utilized: 1) whole primary human CD4+ T cells (from healthy donors) activated with anti-CD3/CD28 antibodies and expressing human CD38; or II) whole primary human macrophages (from healthy donors) stimulated with LPS to polarize in a pro-inflammatory M1 state expressing human CD38. The cells were incubated in the presence of 8 different concentrations of Compound 35 for 10 minutes and the reaction was started adding the substrate εNAD+. The emission of fluorescence was measured at 410-20 nm at 37° C. every minute for 1 hr. The NAD+ hydrolase activity was calculated as the slope of the linear portion of the fluorescence-time curve and used to calculate the IC50 value.

[3] = molecular target: T1, CD38; test: LPS-induced inflammation in mice, MS analysis of NAD+ metabolism in spleen and liver; assay type: in vivo
Procedure: The in vivo efficacy of Compound 39 against the human CD38 enzyme after LPS challenge was assessed. The effects of Compound 39 (10 mg/kg and 30 mg/kg) on inflammato cytokines, inflammation markers and NAD+ levels at 4 h and 8 h points after LPS-induced inflammation in 12 weeks old male C57BL/6J mice were evaluated.
Animals were euthanized by terminal cardiac blood puncture immediately after terminal CO2, 4 h and 8 h after LPS administration. At necropsy, the tissues (Liver, Plasma, Spleen, Kidney, Lungs, Heart, Visceral Adipose Tissue, Muscle-Gastrocnemius) were collected and quick frozen in liquid nitrogen. The blood was collected in a BD Microtainer® K2EDTA Additive Tube, centrifuge at 1000 g for 10 min at 4° C. and plasma was store at −80° C.).

[4] = 30 mg/kg, 8 hours post LPS challenge

Row | SMILES | ADPR levels in liver ([1]; single 3 mg/kg oral dose) | NAD+ levels in liver ([1]; single 3 mg/kg oral dose) | NAM levels in liver ([1]; single 3 mg/kg oral dose) | NMN levels in liver ([1]; single 3 mg/kg oral dose) | ADPR levels in liver ([1]; single 10 mg/kg oral dose) | NAD+ levels in liver ([1]; single 10 mg/kg oral dose) | NAM levels in liver ([1]; single 10 mg/kg oral dose) | NMN levels in liver ([1]; single 10 mg/kg oral dose) | IC50 [2] [nM] | increase of NAD+ levels in liver ([3]; 10 mg/kg, 8 hours post LPS challenge) [fold] | decrease of NAM levels in liver [3, 4] [%] | increase of NAD+ levels in spleen [3, 4] [fold] | decrease in ADPR levels in spleen ([3]; 30 mg/kg, 8 h treatment) [%] | ADPR levels in liver ([3]; treatment arms, 4 hours post LPS challenge)
1 | COc1cc(C(=O)Nc2ccnc(C(F)(F)F)c2)nc(-n2ccnc2)c1 [Compound 35, 6-(1H-imidazol-1-yl)-4-methoxy-N-(2-(trifluoromethyl)pyridin-4-yl)picolinamide] | decrease | increase | decrease | increase | decrease | increase | decrease | increase | 0.179 | – | – | – | – | –
2 | COCCOc1cc(C(=O)Nc2ccnc(C(F)(F)F)c2)nc(-n2ccnc2)n1 [Compound 39, 2-(1H-imidazol-1-yl)-6-(2-methoxyethoxy)-N-(2-(trifluoromethyl)pyridin-4-yl)pyrimidine-4-carboxamide] | – | – | – | – | – | – | – | – | – | 2 | 38 | 2.3 | 40 | decrease
